By IC50 is commonly meant the concentration that inhibits the measured activity by half. One may read the Kd as the constant that tells how readily two partners part at equilibrium. One may read the Ki as the equilibrium dissociation constant of an inhibitor or competing ligand from its target.

Data on four compounds can be found in US20110184018A1, “METHOD FOR TREATING PERIPHERAL NEUROPATHIC PAIN” (LOHOCLA RESEARCH CORPORATION, priority 2005, published 2011).

The target of data set [1] is T1, glycine recognition site of the NMDA receptor complex (Rattus norvegicus, UniProt P35439).
T1 construct: The telencephalon (cerebral cortex, hippocampus, and striatum) was dissected and homogenized; from tissue; host or cells: rat telencephalon membranes (cerebral cortex, hippocampus, striatum), Triton X-100 treated
Put plainly: [3H]5,7-DCKA binding assay. The conditions noted are these: rat cortical membranes; none = no displacement at 100 μM. The method, then: General receptor-binding procedures. Male Sprague-Dawley rats were decapitated and their brains removed rapidly. The telencephalon (cerebral cortex, hippocampus, and striatum) was dissected and homogenized in 20 volumes of ice-cold 0.32 M sucrose, 20 mM HEPES-KOH (pH 7.2 at room temperature) containing protease inhibitors ([…], 5 mg/mL antipain, 20 mg/mL soybean trypsin inhibitor, 500 μM benzamidine, […] aprotinin, and 500 μM phenylmethylsulfonyl fluoride) with a motor driven glass-TEFLON® fluorocarbon homogenizer (8-10 strokes at setting 1). The homogenate was centrifuged at 800 g for 10 minutes. The pellet was discarded and the supernatant was centrifuged at 20,000 g for 20 minutes. The resulting pellet was resuspended in 20 volumes of distilled water containing 500 μM benzamidine and centrifuged for 20 minutes at 7500 g. Then the supernatant and buffy coat were centrifuged three times (51,500 g for 20 minutes) in the presence of distilled water containing 500 μM benzamidine. All centrifugation steps were carried out at 4° C. The final pellet was frozen rapidly at −80° C.
On the day of the assay, the pelleted membranes were resuspended in 20 volumes of 50 mM HEPES-KOH buffer, pH 7.4, and incubated for 20 minutes at 37° C. followed by centrifugation (51,500 g for 20 minutes). Membranes were then resuspended in 50 mM HEPES-KOH buffer (pH 7.8) containing 0.08% Triton X-100. After stirring for 30 minutes at 4° C., the membranes were pelleted by centrifugation (100,000 g for 20 minutes). The membranes were then washed twice by resuspension in the buffer appropriate for the binding assay and centrifugation (100,000 g for 20 minutes). The final pellet was suspended in assay buffer. The amount of protein in the final membrane preparation was determined with the bicinchoninic acid method (BCA; Pierce Chemical Co., Rockford, Ill.). The final protein concentration used for our studies was 300 to 600 μg/mL. Receptor-binding protocols described below were adapted from published procedures. For all assays, the samples, all in duplicate or triplicate, were placed into scintillation vials containing 5.5 mL of scintillation liquid (Ultima Gold; Packard Instrument Co., Inc., Meriden, Conn.) and the retained radioactivity was determined by conventional scintillation spectroscopy with a Beckman TA-6000 scintillation counter. Radio-ligands were purchased from DuPont-NEN (Boston, Mass.).
[^3H]5,7-Dichlorokynurenic acid (5,7-DCKA)-binding assay. The glycine recognition site of the NMDA receptor complex was labeled with the competitive antagonist [^3H]5,7-dichlorokynurenic acid (5,7-DCKA). […]
Data Analysis. The data were analyzed with SigmaPlot 5.0 and SigmaStat 2.0 (Jandel Scientific, Corte Madera, Calif.) software. […]

The target in data set [2] is voltage sensitive sodium channel (neurotoxin receptor Site 2). Description: [3H]BTX binding assay. The conditions noted are these: rat cortical synaptosomes.
The next data set concerns the target T2, CB1 receptor (Homo sapiens, UniProt P21554).
T2 construct: expressed in transfected cells; host or cells: HEK293 cells (ATCC), calcium phosphate transfection
Put plainly: cAMP accumulation in HEK293 cells transfected with AC5, D1AR, CB1R. In kind it is cell-based. The method, then:
HEK293 cells were obtained from American Type Culture Collection (Manassas, Va.). Cells were cultured in 225 mL flasks containing 39 mL of MEM containing 10% fetal bovine serum, penicillin (50 μg/mL), streptomycin (50 μg/mL), and neomycin (100 μg/mL). The flasks were maintained in a humidified atmosphere of 95% air and 5% CO2 at about 37° C. Transfection was performed by the method of DNA precipitation with calcium phosphate 1 day after HEK 293 cells were transferred to small flasks (75 mL) at the density of approximately 60 to 80% confluence. Plasmid DNA containing AC5 or AC7 cDNA (11.5 μg), plasmid DNA carrying the human D1A dopamine receptor cDNA (3 μg) and CB1 receptor cDNA (3 μg), and pCMS-EGFP (1 μg) were used for each small flask, which also contained 13 mL of the culture medium. The amount of DNA per flask was adjusted to a total of 26 μg using vector DNA. Transfection efficiency was routinely monitored by observing the expression of enhanced green fluorescent protein (GFP) by an epifluorescence microscope equipped with a filter set (excitation, 480/40 nm; emission, 535/50 nm) and a dichroic mirror (T89002bs; Chroma Technology, Rockingham, Vt.). After transfection, cells were harvested and transferred into 24-well culture plates. The transfected cells were cultured for 1 to 2 days before the cAMP accumulation experiments were carried out.
After labeling and intracellular ATP pool with 3.0 μCi/mL of [2,8-^3H]adenine, cells were incubated in DMEM (0.5 mL/well) without phenol red, buffered to pH 7.1 with 20 mM of 4-(2-hydroxyethyl)-1-piperazineethanesulfonic acid (HEPES) for 30 minutes at 37° C.
To determine the effect of the DCUK-OEt or other compounds on the function of the CB1 receptor, the cells were treated with the phosphodiesterase inhibitor, IBMX (500 μM), for 10 minutes at 37° C., followed by the addition of D1A receptor agonist, dopamine (DA) (1 μM), in the presence of a known CB1 agonist or agonist, plus a CB1 antagonist for 5 minutes. The following agonist and antagonist were used: CB1 receptor agonist, ACEA (10 μM); CB1 receptor antagonist, AM251 (10 μM). In additional reactions, the addition of DA was accompanied by addition of DCUK-OEt (10 μM) or DCUK-OEt together with AM251 (10 μM). In a final set of reactions DCUK-OEt was added with ACEA (10 μM), to assess whether DCUK-OEt acted like a CB1 receptor antagonist. The reactions were terminated by adding 50 μL of 100% (w/v) tricholoroacetic acid. ATP and cAMP were separated through Dowex 50 and neutral alumina columns as is known in the art, and quantified by liquid scintillation counting. [α-^32P]ATP and 8-[^14C]cAMP were added as internal standards to monitor the recovery of ATP and cAMP through column chromatography. Conversion of [^3H] ATP into [^3H]cAMP was calculated as follows: [^3H]cAMP (%)=[^3H]cAMP (cpm)/([^3H]ATP (cpm)+[^3H]cAMP (cpm))·100. [^3H]cAMP (%) values obtained from cells which underwent only the 10-minute IBMX incubation period before the addition of trichloroacetic acid, were used as blanks and these values were subtracted from the values obtained from cells which underwent the 1-minute incubation period with DA in the presence or absence of other agonists/antagonists. Each condition was assayed in triplicate and the whole experimental procedure was repeated 4 times. The ratio of cAMP accumulation was calculated for all treatment groups versus DA treatment group (100%) and the values were averaged among the four batches of experiments.
In general terms: Cyclic AMP is a second messenger, typically raised through Gs and lowered through Gi signalling.

Data set [3] concerns the target rat brain type IIA Na+ channel (Nav1.2) (Rattus norvegicus, UniProt P04775). Description: Whole-cell patch clamp recordings of Na+ currents in CNaIIA-1 cells. In kind it is cell-based. Background: In patch-clamp work, channel activity is measured electrically.
For the next data set, the system named is DBA/2 mice. Put plainly: Audiogenic seizures. In kind it is in vivo, mouse. The note with it: i.p., 100 and 500 mg/kg. On the procedure:
Audiogenic Seizures. Male DBA/2J mice (20-22 days old; 8-12 g) were used to evaluate the effects of DCUK-OMe in an animal model of partial seizures. Mice were dosed (i.p.) with vehicle (5% TWEEN 80/0.5% methylcellulose), 100 mg/kg DCUK-OMe, or 500 mg/kg DCUK-OMe, 30 minutes before noise stimulation. Mice were placed into a cylindrical Plexiglas testing chamber (15×50 cm, diameter 3 height) enclosed in a sound-attenuated box. After a 15- to 20-second habituation period, a high-intensity auditory stimulus (ringing doorbell; 12-16 kHz, 109 db) was activated for 30 seconds or until tonic hindlimb extension occurred. The seizure response in these mice is characterized by a progression of a wild running behavior, followed by loss of righting and clonus of the forelimbs, followed by tonic hindlimb extension, and finally respiratory arrest.

Data set [4] can be described thus: Solubility limit in aqueous assay buffers. In kind it is physicochemical. The conditions noted are these: aqueous assay buffers (incubation or bath solutions), aqueous buffer, kinetic from dmso stock, DMSO 0.2 to 1%, read-out: concentrations that could not be tested due to limited solubility in aqueous buffers. On the procedure:
Drugs. For all in vitro assays, stock solutions of DCUKA or DCUK-OMe were prepared fresh daily in dimethylsulfoxide (DMSO) then diluted into the incubation or bath solutions with sonication to the desired concentrations for experiments. Due to their limited solubility in aqueous buffers, DCUKA concentrations >300 μM and DCUK-OMe concentrations >100 μM could not be tested. In those assays where high ionic strength buffers were used, i.e., [^3H]batrachiotoxin (BTX) binding in depolarized synaptosomes, concentrations >50 μM could not be tested. The final concentration of DMSO in the assays ranged from 0.2 to 1%. In all assays, drug effects were compared with effects measured in the presence of the identical concentration of DMSO without drug.

Where [5] appears, read: none = no displacement at 100 μM, read-out: IC50 [3H]BTX binding.

Read-outs that look alike come from different tables or passages of the source.

T2 sequence (P21554 whole entry): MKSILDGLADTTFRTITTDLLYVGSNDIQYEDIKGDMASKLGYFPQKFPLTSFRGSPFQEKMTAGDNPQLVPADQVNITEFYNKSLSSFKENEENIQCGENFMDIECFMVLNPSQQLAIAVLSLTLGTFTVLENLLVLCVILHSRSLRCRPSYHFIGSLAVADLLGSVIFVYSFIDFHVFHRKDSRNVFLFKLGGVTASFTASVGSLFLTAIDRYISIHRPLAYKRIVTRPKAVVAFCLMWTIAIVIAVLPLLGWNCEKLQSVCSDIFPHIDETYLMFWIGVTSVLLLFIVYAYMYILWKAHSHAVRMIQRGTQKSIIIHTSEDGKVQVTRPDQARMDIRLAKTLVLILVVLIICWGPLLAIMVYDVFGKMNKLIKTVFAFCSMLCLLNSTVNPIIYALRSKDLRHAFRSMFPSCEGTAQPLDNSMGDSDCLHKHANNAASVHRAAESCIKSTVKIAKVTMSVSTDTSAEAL
Sequence of rat brain type IIA Na+ channel (Nav1.2) (P04775 whole entry): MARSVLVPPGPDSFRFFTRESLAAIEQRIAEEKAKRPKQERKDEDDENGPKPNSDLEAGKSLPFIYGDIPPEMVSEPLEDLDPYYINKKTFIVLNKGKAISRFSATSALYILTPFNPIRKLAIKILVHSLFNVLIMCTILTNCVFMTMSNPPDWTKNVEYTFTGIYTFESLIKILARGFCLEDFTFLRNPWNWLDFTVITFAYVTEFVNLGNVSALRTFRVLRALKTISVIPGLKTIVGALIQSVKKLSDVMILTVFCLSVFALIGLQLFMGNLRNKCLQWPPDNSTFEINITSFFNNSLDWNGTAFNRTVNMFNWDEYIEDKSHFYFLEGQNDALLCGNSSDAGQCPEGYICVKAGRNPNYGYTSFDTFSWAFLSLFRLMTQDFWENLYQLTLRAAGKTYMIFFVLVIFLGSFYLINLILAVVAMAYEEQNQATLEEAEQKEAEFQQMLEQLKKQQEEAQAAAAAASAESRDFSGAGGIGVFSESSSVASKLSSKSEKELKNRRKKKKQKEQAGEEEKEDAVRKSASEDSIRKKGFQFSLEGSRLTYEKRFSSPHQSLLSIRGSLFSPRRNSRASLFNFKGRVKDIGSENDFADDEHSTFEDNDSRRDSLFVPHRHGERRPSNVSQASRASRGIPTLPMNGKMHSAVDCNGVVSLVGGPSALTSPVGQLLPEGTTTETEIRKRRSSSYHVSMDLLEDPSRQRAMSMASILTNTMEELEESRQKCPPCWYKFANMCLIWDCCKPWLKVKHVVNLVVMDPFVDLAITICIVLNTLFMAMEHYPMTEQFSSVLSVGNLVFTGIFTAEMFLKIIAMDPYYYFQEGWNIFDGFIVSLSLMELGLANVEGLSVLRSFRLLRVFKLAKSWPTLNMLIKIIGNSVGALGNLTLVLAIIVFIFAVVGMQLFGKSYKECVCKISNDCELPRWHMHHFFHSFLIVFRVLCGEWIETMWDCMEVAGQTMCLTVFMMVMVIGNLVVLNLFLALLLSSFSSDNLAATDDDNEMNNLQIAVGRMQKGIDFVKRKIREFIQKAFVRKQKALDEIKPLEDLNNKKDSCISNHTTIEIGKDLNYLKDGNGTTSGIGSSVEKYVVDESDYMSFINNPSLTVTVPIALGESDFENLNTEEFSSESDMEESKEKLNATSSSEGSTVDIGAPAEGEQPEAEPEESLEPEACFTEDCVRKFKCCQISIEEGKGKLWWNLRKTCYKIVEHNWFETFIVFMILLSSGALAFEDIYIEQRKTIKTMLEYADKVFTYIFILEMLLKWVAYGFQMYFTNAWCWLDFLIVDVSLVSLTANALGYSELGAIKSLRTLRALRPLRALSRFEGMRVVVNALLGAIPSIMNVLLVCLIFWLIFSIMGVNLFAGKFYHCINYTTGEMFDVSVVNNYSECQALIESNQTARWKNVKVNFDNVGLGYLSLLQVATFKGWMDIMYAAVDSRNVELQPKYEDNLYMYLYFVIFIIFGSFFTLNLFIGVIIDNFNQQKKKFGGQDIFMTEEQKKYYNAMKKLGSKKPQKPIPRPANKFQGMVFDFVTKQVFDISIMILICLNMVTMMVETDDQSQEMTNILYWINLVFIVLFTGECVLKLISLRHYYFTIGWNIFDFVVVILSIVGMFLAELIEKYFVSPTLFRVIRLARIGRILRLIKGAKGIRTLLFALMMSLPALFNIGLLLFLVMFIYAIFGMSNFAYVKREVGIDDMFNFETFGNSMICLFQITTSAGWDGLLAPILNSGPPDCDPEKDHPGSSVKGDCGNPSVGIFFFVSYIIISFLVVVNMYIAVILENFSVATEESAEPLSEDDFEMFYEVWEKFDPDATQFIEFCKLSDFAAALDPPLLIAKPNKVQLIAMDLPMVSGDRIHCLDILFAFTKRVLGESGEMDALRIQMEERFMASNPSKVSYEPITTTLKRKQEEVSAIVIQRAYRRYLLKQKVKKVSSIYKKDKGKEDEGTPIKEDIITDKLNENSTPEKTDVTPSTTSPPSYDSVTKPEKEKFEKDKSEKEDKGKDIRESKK

Regarding `O=C(O)c1cc(=O)c2c(Cl)cc(Cl)cc2[nH]1` [5,7-DCKA, 5,7-dichlorokynurenic acid, reference compound], in data set [1], the IC50 worked out at 0.11 µM. Moreover, the “IC50 [3H]BTX binding” value in data set [2] (none = no displacement at 100 μM) is “none”.

With `CCCCC/C=C\C/C=C\C/C=C\C/C=C\CCCC(=O)NCCCl` [ACEA, reference compound], the “effect on DA stimulated cAMP production with AM251 added” value on CB1 receptor (AM251 10 μM) is given as “the effect of ACEA was reversed”. Besides, on CB1 receptor (dopamine 1 μM, compound 10 μM), the “effect on DA stimulated cAMP production” value is “reduced cAMP production”.

With `NC(=O)N1c2ccccc2C=Cc2ccccc21` [CBZ, carbamazepine, reference compound], in data set [1], the “IC50 [3H]5,7-DCKA binding” value is listed as “none”. Also, the IC50 in data set [2] (depolarizing conditions (135 mM KCl), read-out: IC50 [3H]BTX binding under depolarizing conditions (value in parentheses)) turned out to be 56 µM. Moreover, the IC50 in data set [2] (setting [5]) amounted to 71 µM. In data set [3], this compound gave a Kd of 400 µM and a Ki of 14.6 µM.

As for `COC(=O)c1cc(NC(=O)N(c2ccccc2)c2ccccc2)c2c(Cl)cc(Cl)cc2n1` [DCUK-OMe, N,N-diphenyl-4-ureido-5,7-dichloro-2-carboxy quinoline methyl ester], the “IC50 [3H]5,7-DCKA binding” value in data set [1] is “none”. Also, the IC50 in data set [2] (setting [5]) is 25 µM. Further, the “protection against audiogenic seizures” value in the data set with DBA/2 mice was “protection against audiogenic seizures”. In addition, the solubility in data set [4] is above 100 µM.
